This is an account of results in US20090318354A1, “Use of at least one isoform of progesterone receptor membrane component 1 (PGRMC1)” (PROTEOSYS AG, priority 2006, published 2009).

For one assay, the system named is MCF7 breast cancer cells. In words: ATP-TCA cell viability assay in MCF7 cells and MCF7 cells stably expressing PGRMC1 WT or mutants. It is filed as cell-based, human.
Assay [1] deals with breast cancer exhibiting a positive ER status. Conditions: patients suffering from breast cancer exhibiting a positive ER status; cited from earlier work.
For a further assay, the system named is AKT. Conditions: S56A/S180A and Y179F/S180A mutants, H2O2 even at 1 mM. An excerpt: Antibodies employed were specific for phosphorylated AKT (top), for the polypeptide backbone of AKT (middle), or for the HA-tag on the respective exogenously expressed PGRMC1 constructs.

As for `CC/C(=C(\c1ccccc1)c1ccc(OCCN(C)C)cc1)c1ccccc1` [tamoxifen], the “resistance of clone to Tamoxifen” value in the assay on MCF7 breast cancer cells (clone S56A/S180A, comparable to wild-type PGRMC1 control or native MCF7 cells) is reported as “exhibited resistance”. The “susceptibility of clone to Tamoxifen” value in the assay with MCF7 breast cancer cells (clone S180A) is “highly susceptible”. In the assay with MCF7 breast cancer cells (tamoxifen 10^-8 M, charcoal-treated FCS, 5 days), the viability of cells entry was “reduced viability”. Moreover, in assay [1], the “cases in which treatment is effective” value was “approximately 50%”.

As to estrogen, in the assay with MCF7 breast cancer cells (estrogen 10^-9 M added to RPMI with charcoal-treated FCS, 5 days), the viability of cells result is reported as “improved”. For the same compound, the “rescue of impaired viability in the presence of tamoxifen” value with MCF7 breast cancer cells (estrogen 10^-9 M plus tamoxifen 10^-8 M) was “could not rescue”.

As to methyl-β-cyclodextrin, the “cell viability relative to MCF7 control cells” value in the assay on MCF7 breast cancer cells (cells expressing all PGRMC1 mutants except S180A, 5 mM methyl-beta-cyclodextrin, 2 h, charcoal-treated FCS) is reported as “drastically reduced cell viability”.

Consider `CC(=O)[C@H]1CC[C@H]2[C@@H]3CCC4=CC(=O)CC[C@]4(C)[C@H]3CC[C@]12C` [Progesterone, progesterone], for which the “proliferative effect relative to other cells” value with MCF7 breast cancer cells (PGRMC1-WT cell line, progesterone 10^-7 M, 5 days, charcoal-treated FCS) is given as “marginal proliferative effect”. In addition, in the assay with MCF7 breast cancer cells (cells generally, progesterone 10^-7 M, charcoal-treated FCS, 5 days), the viability of cells result was “not affected greatly”.

Turning to `CC[C@H](C)C(=O)O[C@H]1C[C@@H](C)C=C2C=C[C@H](C)[C@H](CC[C@@H]3C[C@@H](O)CC(=O)O3)[C@H]21` [lovastatin], the viability result was “improved viability” in the assay with MCF7 breast cancer cells (PGRMC1 Y179F/S180A mutant, lower concentrations of lovastatin) and “reduced” with MCF7 breast cancer cells (all cell lines, high levels of lovastatin, 2 days, charcoal-treated FCS).

For `OO` [H2O2, hydrogen peroxide], in the assay with MCF7 breast cancer cells (MCF7 cells, 50 μM H2O2, RPMI with 10% FCS), the cell viability result is “reduced cell viability”. For the same compound, in the assay with AKT, the “phosphorylation of AKT upon H2O2 treatment” value is “neither of the mutants that survived H2O2 treatment in FIG. 10B exhibited phosphorylation of AKT”.
